The values that follow come from patent publication US20020019420A1, “Methods and compositions for treating gastric disorders using optically pure (+)-pantoprazole” (Sepracor Inc., priority 1993, published 2002).

Like-named read-outs stand apart in the source and are kept apart here. Where only a bound is given, the exact number is not on record here.

For data set [1] the following is noted: patients with duodenal ulcers, after four weeks of 20 to 80 mg per day; cited from earlier work.
The conditions of data set [2]: cited from earlier work.
For data set [3] the following is noted: humans, short-term administration; cited from earlier work.
The subject of data set [4] is endogenous acid secretion. As to conditions: pylorus-ligated rats, cited from earlier work.
For data set [5] the following is noted: rat, cited from earlier work.
For data set [6] the following is noted: rats, two year study; cited from earlier work.
The nature of data set [7]: acute toxicity LD50 in mice. The class given is in vivo.
Data set [8] concerns hepatic drug metabolizing enzyme systems. The following applies: intact rats and rat microsomal enzyme preparations; cited from earlier work.
For data set [9], the system named is endogenous acid secretion. Description: reduction of endogenous acid secretion in pylorus-ligated rats. In kind it is in vivo, rat. An excerpt: This may increase pantoprazole's selectivity for the acid secreting parietal cells, where low pH conditions exist in the intracellular canaliculi. In intact animals, pantoprazole is active in inhibiting gastric acid secretion in both rats and dogs. Specifically, the intravenous and oral doses required to reduce endogenous acid secretion in pylorus-ligated rats by 50% are in the 1-3 μmole/kg range. […] Racemic pantoprazole is also effective at doses less than 5 μmole/kg in inhibiting exogenously stimulated acid. secretion induced by a variety of agonists, indicating general activity of the drug in inhibiting acid secretion.

For data set [10] the following is noted: neutral and moderately acidic conditions; cited from earlier work.
Data set [11] concerns exogenously stimulated acid secretion. The following applies: variety of agonists; cited from earlier work.
A further data set deals with beta-adrenergic. The following applies: L-form versus D-enantiomer; cited from earlier work.
The conditions of data set [12]: weak acid; cited from earlier work.

With `COc1ccnc(C[S+]([O-])c2nc3ccc(OC(F)F)cc3[nH]2)c1OC` (racemic) [racemic pantoprazole], in data set [1], the ulcer healing is reported as 90-100%. Further, the “intravenous LD50” value in data set [2] (mice, intravenous) is 975 µmol/kg; in data set [5] (intravenous), 632 µmol/kg. For the same molecule, the “oral LD50” value in [2] (mouse, in vivo, po) is 1,893 μmol/kg; in [5] (in vivo, po), > 2,467 μmol/kg. In addition, the “fasting serum gastrin levels” value in data set [3] is on record as “significantly elevated”. Further, the “intravenous dose required to reduce endogenous acid secretion by 50%” value in [4] (intravenous) is 1 to 3 µmol/kg. For the same molecule, the “oral dose required to reduce endogenous acid secretion by 50%” value in [4] (oral) is 1 to 3 µmol/kg. Further, the “finding in carcinogenicity study” value in [6] is “hepatocellular neoplasia”. Also, the “p.o./i.v. LD50 ratio” value in data set [7] was “approximately 2”. In addition, in data set [8], the “inhibition of hepatic drug metabolizing enzyme systems compared to omeprazole” value was “weaker inhibitor”. In [9], the “calculated oral/intravenous (p.o./i.v.) ratio of the 50% doses” value was “approximately 2”. In addition, the “chemical stability compared with omeprazole” value in [10] is given as “more chemically stable”. In addition, the “effective dose inhibiting exogenously stimulated acid secretion” value in [11] is given as “less than 5 μmole/kg”.
As to `CC(C)NC[C@H](O)COc1cccc2ccccc12` [L-form of propranolol, propranolol], the “potency relative to the D-enantiomer” value with beta-adrenergic is 100 times.
With `COc1ccnc(C[S+]([O-])c2nc3ccc(OC(F)F)cc3[nH]2)c1OC` (single isomer, unassigned; (+)) [(+) pantoprazole, (+) isomer of 5-(difluoromethoxy)-2-[[3,4-dimethoxy-2-pyridinyl)methyl]sulfinyl]-1H-benzimidazole], in [12], the PKa is 8.2.
